# Results reported in patent publication US6001880A, “Alkylenediamine derivative, anti-ulcer drug, and antibacterial drug” (Shiseido Co., Ltd., priority 1997, dated 1999).
# Tests used:
# [1] = system: stress ulcer formation in rats; experiment: WIS: Restraint and Water Immersion Stress-Induced Ulcer Inhibition Test; assay type: in vivo, rat (male Crj:SD or Slc:SD); conditions: 100 mg/kg oral, 10 minutes before 7 h restraint and water immersion (21° C.)
# Description: WIS: Restraint and Water Immersion Stress-Induced Ulcer Inhibition Test
# The degree of inhibition of the stress ulcer formation is tested.
# Male Crj:SD or Slc:SD rats (6 to 7-week-old) were fasted overnight, but allowed free access to water. Each group has 5 to 8 of these rats. The sample compound was dissolved or suspended in an aqueous solution of 0.3% sodium carboxymethylcellulose or 0.05% Tween 80 and then was orally administered (100 mg/10 ml/kg). To a control group, the vehicle was administered. 10 minutes later, the rats were placed in a stress cage and immersed to the level of xipfoid process in a water bath (21° C.) for 7 hours. At the end of the stress, the rats were sacrificed by inhalation of ether or carbon dioxide. Then, the stomach of each was removed, inflated by injecting 10 ml of 5% formalin neutral buffer solution, and immersed in 1% formalin neutral buffer solution for 30 minutes or more to be fixed. The stomach was incised along the greater curvature and then the length of each erosion in the glandular portion was determined under dissecting microscope. The sum of the length of erosions per stomach was defined as ulcer index (UI).
# The effect obtained when 100 mg/kg of the sample compound had been administered was expressed as ulcer formation inhibitory rate (%) as follows:
# ulcer formation inhibitory rate (%)=(1-(UI in sample group/UI in control
# [2] = system: isolated gastric fundic gland; experiment: CAP: Acid Secretion Inhibition Test In Vitro ([14C]-aminopyrine uptake); assay type: cell-based, rabbit (male Japanese White); conditions: Oryctolagus cuniculus; final concentration 10^-5 M; histamine 10^-5 M stimulation; read-out: CAP: acid secretion inhibitory rate
# Description: CAP: Acid Secretion Inhibition Test In Vitro
# The acid secretion inhibitory activity in a cell level is studied. It can also be used for studying the mechanism of the effect.
# First, an isolated gastric fundic gland sample was prepared. Namely, a male Japanese White rabbit (2.5 to 3 kg) was anesthetized to death with Nembutal™ and then the abdomen was incised. Immediately thereafter, the stomach was removed and, after its pyloric and cardiac antrum were severed, incised along its greater curvature into two sheets. The gastric contents adhering to the mucosal surface was washed out with ice-cooled PBS (-) and then carefully washed therein. The gastric wall was spread on a cork board with its mucosal surface facing up and the feed and mucus thereon were completely removed with sterile gauze. The mucosa was separated therefrom by a spatula and then collected in ice-cooled PBS (-). After being washed twice with PBS (-), the mucosa was minced into 2-3 mm^3 pieces by scissors. These pieces were further washed twice with a nutrient solution. The nutrient solution comprises 132.4 mM of NaCl, 5.4 mM of KCl, 5 mM of Na2 HPO4. 12H2 O, 1 mM of NaH2 PO4.2H2 O, 1.2 mM of MgSO4, 1 mM of CaCl2, 25 mM of HEPES, 2 mg/ml of glucose, and 1 mg/ml of BSA.
# Into 70 ml of the nutrient solution containing 1 mg/ml of collagenase, minced mucosal pieces were dispersed and intensely stirred in a conical flask with a stirrer at 37° C. for 40 to 60 minutes. During this period, 100% O2 was sprayed on the nutrient solution surface and the pH was appropriately measured such that it was immediately adjusted to pH 7.4, when the value was therebelow, with a base. The nutrient solution was added to the reaction solution so as to attain the total amount of about 200 ml. After being filtered through a mesh, the suspension was divisionally introduced into 50 ml centrifuge tubes and left for 15 minutes such that gastric fundic gland was deposited. The supernatant was repeatedly removed by an aspirator, dispersed in the nutrient solution, and then left such that the gastric fundic gland was washed three times. At this time, without using a pipette, the suspension was alternately introduced into two centrifuge tubes so as to effect dispersion. The number of cells was counted under microscope and adjusted to 1.6×10^6 cells/ml.
# Then, [^14 C]-aminopyrine uptake test was performed. After an Eppendorf tube was weighed, 10 μl (final concentration: 10^-5 M) of histamine dissolved in the above-mentioned nutrient solution, 10 μl (final concentration: […]) of the test compound dissolved in DMSO, and 10 μl (final concentration: 0.05 μCi/ml) of [^14 C]-aminopyrine diluted with the nutrient solution were introduced therein and then 970 μl of the isolated gastric fundic gland suspension prepared above was added thereto. Subsequently, this mixture was shaken at 37° C. for 40 minutes at 125 cycles/minute. After being centrifuged for 30 seconds, 200 μl of its supernatant was collected into a mini-vial, while the rest was removed by an aspirator. The gland pellet was completely dried as the tube with its lid being opened was kept for one night in a drying oven at 80° C. and then the lid was closed and the weight was determined at room temperature. Then 100 μl of 1N KOH was added thereto and the tube with its lid being closed was treated at 60° C. for 1 to 2 hours so as to dissolve the pellet. Then, the contents thereof were transferred to a mini-vial. Into the mini-vial containing the supernatant or gland pellet, 4 ml of Atomlite™ was added and then the radioactivity was measured by a liquid scintillation counter. Here, after the radioactivity of the gland pellet was corrected by using a sample in which 20 mM of NaSCN was added so as to cancel the hydrogen ion concentration gradient, the integration ratio of aminopyrine specifically trapped by the gland pellet was calculated. This experiment was performed in duplicate.
# Here, its principle will be briefly explained. […]
# [3] = MTT: Cell Damaging and Protecting Effect Test; assay type: cell-based, rabbit (male Japanese White); conditions: rabbit, gastric corpus mucosa cells, final concentration 10^-4 M, smaller value is better, read-out: MTT: cell damaging rate
# From the text: MTT: Cell Damaging and Protecting Effect Test
# It is confirmed that there is no toxicity in cell level. Those having a toxicity in cell level are inappropriate as an anti-ulcer drug.
# A male Japanese White rabbit (2.5 to 3 kg) was anesthetized to death by Nembutal™ and, immediately thereafter, its stomach was removed. The greater curvature of the stomach was incised so as to remove the stomach contents therefrom. After the mucosal surface was washed with HBSS (Hanks' Balanced Salt Solution), the stomach in ice-cooled HBSS was transferred to a laboratory. Then, after the pyloric antrum was removed, the gastric corpus mucosa was separated by a spatula and then minced into 2 to 3 mm^3 pieces in BME (Basal Medium Eagle). Thereafter, these pieces were shaken at 120 to 130 cycles/minute for 15 minutes at 37° C. in BME 60 ml containing 280 U/ml of dispase and 30 to 50 U/ml of collagenase. Here, the concentration of collagenase was appropriately changed for each lot in view of the state of cells. The pieces were washed twice with EBSS (Earle's Balanced Salt Solution) containing 1 mM of EDTA and then shaken in MEM (Minimum Essential Medium) containing 1 mM of EDTA at 37° C. for 5 minutes. Subsequently, they were shaken in the dispase and collagenase having the same concentrations as those mentioned above for 15 minutes so as to remove the supernatant and then further shaken at 37° C. for 50 to 60 minutes at 120 to 130 cycles/minute. Then, after being washed twice with HBSS, Ham F12 containing 2% of Ultrocer G™ was used to attain the concentration of 1×10^6 cells/ml. Thus formed suspension was dispensed in each well of a 96-well plate by 200 μl. The plate was incubated in the atmosphere composed of 5% CO2 and 95% air at 37° C. for three days so as to attain a confluent state and then subjected to MTT assay.
# The sample compound was dissolved in DMSO so as to attain a concentration of 10^-2 M and then diluted with HBSS containing 2% of Ultrocer G™ so as to attain a final concentration of 10^-4 M. To each group, which 8 wells were used for, 10 μl of MTT reagent was added immediately after 100 μl of the medium in each well was exchanged for same volume of the resulting solution of the sample compound. After being incubated in an atmosphere composed of 5% CO2 and 95% air at 37° C. for 4 hours, thus formed solution was centrifuged and then its supernatant was discarded. Subsequently, 100 μl of 100% ethanol was added to the residue so as to dissolve MTT formazan. Then, the absorbance (OD: 570 to 630) was measured by a microplate reader. This method utilizes a phenomenon in which MTT is changed to MTT formazan only by mitochondria of living cells so as to change color.
# The cell damaging or cell protecting effect of the sample compound at the final concentration of 10^-4 M was expressed as cell damaging rate (%) as follows:
# cell damaging rate (%)=(1-(absorbance in sample group/absorbance in control
# Accordingly, the smaller value is better in the cell damaging rate.
SMILES,WIS: ulcer formation inhibitory rate [1] [%],inhibition at 10 µM [2] [%],"cytotoxicity at 4 h, 100 µM [3] [%]"
CCN(CC)CCNC(=O)c1cccc(OC/C=C(\C)CCC=C(C)C)c1 [Example 1],72,,
CCN(CC)CCNC(=O)c1ccc(OC/C=C(\C)CCC=C(C)C)cc1 [Example 4],83,,
CCN(CC)CCNC(=O)c1ccc(OC/C=C(\C)CC/C=C(\C)CCC=C(C)C)cc1 [Example 6],52,97.9,
CC(C)=CCC/C(C)=C/COc1ccc(C(=O)NCCN(CC(C)C)CC(C)C)cc1 [Example 9],40,,15
CC(C)=CCC/C(C)=C/COc1ccc(C(=O)NCCN(C)CC(C)C)cc1 [Example 10],65,,
CCCCN(C)CCNC(=O)c1ccc(OC/C=C(\C)CCC=C(C)C)cc1 [Example 11],45,100,
CC(C)=CCC/C(C)=C/COc1ccc(C(=O)NCCN(C)C(C)(C)C)cc1 [Example 12],34,99.9,
CCN(CC)CCNC(=O)c1ccc(OC/C=C(\C)CCC=C(C)C)c(OC/C=C(\C)CCC=C(C)C)c1 [Example 18],37,,
CCN(CC)CCNC(=O)c1cc(OC/C=C(\C)CCC=C(C)C)cc(OC/C=C(\C)CCC=C(C)C)c1 [Example 19],69,,
CCN(CC)CCNC(=O)c1cc(OCC=C(C)C)c(OCC=C(C)C)c(OCC=C(C)C)c1 [Example 23],81,,
CC(C)=CCOc1cc(C(=O)NCCN(C)C)cc(OCC=C(C)C)c1OCC=C(C)C [Example 24],70,,
CC(C)=CCC/C(C)=C/CNc1ccc(C(=O)NCCN(C(C)C)C(C)C)cc1 [Example 26],49,100,
CC(C)=CCC/C(C)=C/COc1ccc(C(=O)NCCN(C(C)C)C(C)C)cc1CC(C)C [Example 34],48,100,
CCN(CC)CCNC(=O)c1cc(OC)c(OCC=C(C)C)c(OC)c1 [Example 36],88,,
CCN(CC)CCNC(=O)c1cc(OC)c(OC)c(OCC=C(C)C)c1 [Example 40],79,,-2
COc1cc(C(=O)NCCN(C)C)cc(OC)c1OC/C=C(\C)CCC=C(C)C [Example 43],88,,1
CC(C)=CCOc1ccc(C(=O)NCCN(C)C)cn1 [Example 44],30,,
CC(C)=CCOc1ncccc1C(=O)NCCN(C)C [Example 45],41,,
CCN(CC)CCNC(=O)c1cccnc1OCC=C(C)C [Example 47],80,,
CC(C)=CCC/C(C)=C/COc1ccc(C(=O)NCCN(C)C)cn1 [Example 49],38,,
CCN(CC)CCNC(=O)c1cccnc1OC/C=C(\C)CCC=C(C)C [Example 52],57,101,
CC(C)=CCOc1cccnc1C(=O)NCCN(C)C [Example 53],67,,1
CCN(CC)CCNC(=O)c1ncccc1OCC=C(C)C [Example 54],78,,-10
CC(C)=CCOc1cccnc1C(=O)NCCN(C(C)C)C(C)C [Example 55],97,,20
CC(C)COc1ccc(C(=O)NCCN(C(C)C)C(C)C)cc1 [Example 60],98,97.3,
CC(C)N(CCNC(=O)c1ccc(C(C)(C)C)cc1)C(C)C [Example 61],94,97.3,
CCCCCCCCc1ccc(C(=O)NCCN(C(C)C)C(C)C)cc1 [Example 63],49,101,
CC(C)N(CCNC(=O)c1ccc(N(C)C)cc1)C(C)C [Example 70],66,101,
